# Experimental data: US10844077B2, “Thiazolyl-containing compounds for treating proliferative diseases” (Dana-Farber Cancer Institute, Inc., priority 2014, dated 2020)
# Read-outs that look alike come from different tables or passages of the source.
# Experiments:
# kinases in BCWM.1 cells [1] = target: kinases in BCWM.1 cells (Homo sapiens, UniProt Q9NZJ5); assay: KINATIV assay of compounds I-3 and I-9, lysate directly labeled with ATP-biotin probe (no GF); format: cell-based; conditions: PEK; Lys2; 1 μM, 90 min; no GF
# Procedure: (§1) The cells were harvested and lysed. […] Bound kinases were identified and quantitated by ACTIVX as described in Patricelli et al., Biochemistry, 2007, 46(2): 350-358. The compounds were tested in duplicates against duplicate or quadruplicate control samples.
# kinases in BCWM.1 cells [2] = target: kinases in BCWM.1 cells (Homo sapiens, UniProt Q9UBE8); assay: as above; format: cell-based; conditions: NLK; Lys2; 1 μM, 90 min; no GF
# Procedure: as §1
# kinases in BCWM.1 cells [3] = target: kinases in BCWM.1 cells (Homo sapiens, UniProt Q9BZL6); assay: as above; format: cell-based; conditions: PKD2; Lys1; 1 μM, 90 min; no GF
# Procedure: as §1
# kinases in BCWM.1 cells [4] = target: kinases in BCWM.1 cells (Homo sapiens, UniProt Q8TDX7); assay: as above; format: cell-based; conditions: NEK7; Lys1; 1 μM, 90 min; no GF
# Procedure: as §1
# kinases in BCWM.1 cells [5] = target: kinases in BCWM.1 cells (Homo sapiens, UniProt Q9NYL2); assay: as above; format: cell-based; conditions: ZAK; Lys1; 1 μM, 90 min; no GF
# kinases in BCWM.1 cells (Homo sapiens, UniProt Q9NYL2), sequence (Q9NYL2 2-800 limits assumed): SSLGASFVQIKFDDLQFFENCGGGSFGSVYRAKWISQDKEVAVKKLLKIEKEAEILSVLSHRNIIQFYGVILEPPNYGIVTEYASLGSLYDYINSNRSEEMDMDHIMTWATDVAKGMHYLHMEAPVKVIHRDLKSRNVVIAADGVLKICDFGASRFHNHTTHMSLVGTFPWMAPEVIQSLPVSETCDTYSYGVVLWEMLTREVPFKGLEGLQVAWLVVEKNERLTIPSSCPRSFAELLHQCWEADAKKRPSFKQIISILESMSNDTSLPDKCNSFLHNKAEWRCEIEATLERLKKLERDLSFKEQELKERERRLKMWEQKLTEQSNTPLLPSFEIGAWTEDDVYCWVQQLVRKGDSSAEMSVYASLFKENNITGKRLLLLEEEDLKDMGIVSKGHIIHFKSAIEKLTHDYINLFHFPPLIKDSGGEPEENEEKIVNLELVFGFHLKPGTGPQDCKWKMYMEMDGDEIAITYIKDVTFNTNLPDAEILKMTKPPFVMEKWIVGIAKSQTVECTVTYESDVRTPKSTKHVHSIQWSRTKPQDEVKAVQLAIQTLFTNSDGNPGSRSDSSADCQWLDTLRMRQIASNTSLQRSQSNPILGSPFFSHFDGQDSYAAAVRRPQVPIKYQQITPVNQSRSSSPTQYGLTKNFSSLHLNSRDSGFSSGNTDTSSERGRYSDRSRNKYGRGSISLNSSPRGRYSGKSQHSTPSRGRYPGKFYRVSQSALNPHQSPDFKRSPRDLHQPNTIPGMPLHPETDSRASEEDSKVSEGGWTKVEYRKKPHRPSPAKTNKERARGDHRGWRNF
# Procedure: as §1
# kinases in BCWM.1 cells [6] = target: kinases in BCWM.1 cells (Homo sapiens, UniProt Q58A45); assay: as above; format: cell-based; conditions: PAN3; Protein Kinase Domain; 1 μM, 90 min; no GF
# Procedure: as §1
# broad panel of kinases [7] = target: broad panel of kinases (Homo sapiens, UniProt P07948); format: binding; conditions: LYN; 1 μM
# broad panel of kinases (Homo sapiens, UniProt P07948), sequence (P07948 2-512 limits assumed): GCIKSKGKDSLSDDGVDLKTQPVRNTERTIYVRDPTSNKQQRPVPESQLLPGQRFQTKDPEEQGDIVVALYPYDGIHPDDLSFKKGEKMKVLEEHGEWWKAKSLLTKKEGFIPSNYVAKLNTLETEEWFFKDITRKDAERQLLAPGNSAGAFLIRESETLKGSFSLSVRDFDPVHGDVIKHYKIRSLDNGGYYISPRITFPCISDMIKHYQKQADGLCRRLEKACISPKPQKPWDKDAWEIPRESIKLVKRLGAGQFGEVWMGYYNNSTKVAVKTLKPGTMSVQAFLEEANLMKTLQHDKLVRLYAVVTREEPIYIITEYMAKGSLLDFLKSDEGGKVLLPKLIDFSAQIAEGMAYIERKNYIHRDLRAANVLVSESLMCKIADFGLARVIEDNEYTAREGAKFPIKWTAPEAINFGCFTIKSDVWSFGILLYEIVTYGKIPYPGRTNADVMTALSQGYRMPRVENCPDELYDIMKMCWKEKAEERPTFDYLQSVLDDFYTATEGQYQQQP
# broad panel of kinases [8] = target: broad panel of kinases (Homo sapiens, UniProt Q9UBF8); format: binding; conditions: PIK4CB; 1 μM
# broad panel of kinases (Homo sapiens, UniProt Q9UBF8), sequence (Q9UBF8 2-816 limits assumed): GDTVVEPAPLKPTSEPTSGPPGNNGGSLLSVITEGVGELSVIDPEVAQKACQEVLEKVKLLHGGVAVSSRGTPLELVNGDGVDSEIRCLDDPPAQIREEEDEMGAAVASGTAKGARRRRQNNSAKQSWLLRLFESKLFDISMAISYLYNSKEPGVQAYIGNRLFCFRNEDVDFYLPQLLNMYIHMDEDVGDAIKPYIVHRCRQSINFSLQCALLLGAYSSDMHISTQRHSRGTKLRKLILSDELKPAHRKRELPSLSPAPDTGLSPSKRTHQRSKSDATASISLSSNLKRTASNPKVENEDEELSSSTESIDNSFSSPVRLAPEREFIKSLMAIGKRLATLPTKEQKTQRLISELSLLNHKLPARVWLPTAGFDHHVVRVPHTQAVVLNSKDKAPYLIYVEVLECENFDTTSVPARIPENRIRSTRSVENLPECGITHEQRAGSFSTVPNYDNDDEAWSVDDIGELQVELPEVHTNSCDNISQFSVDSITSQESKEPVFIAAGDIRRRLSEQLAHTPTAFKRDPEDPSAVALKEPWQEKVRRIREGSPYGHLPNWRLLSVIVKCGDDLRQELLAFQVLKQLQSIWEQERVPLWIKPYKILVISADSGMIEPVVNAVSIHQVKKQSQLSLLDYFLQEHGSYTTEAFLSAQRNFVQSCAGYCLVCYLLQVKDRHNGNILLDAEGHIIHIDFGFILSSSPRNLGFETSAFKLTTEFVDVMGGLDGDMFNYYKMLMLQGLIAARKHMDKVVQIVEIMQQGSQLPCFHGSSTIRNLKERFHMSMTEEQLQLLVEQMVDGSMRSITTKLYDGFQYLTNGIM
# broad panel of kinases [9] = target: broad panel of kinases (Homo sapiens, UniProt Q8NE63); format: binding; conditions: HIPK4; 1 μM
# broad panel of kinases [10] = target: broad panel of kinases (Homo sapiens, UniProt P42345); format: binding; conditions: MTOR; 1 μM
# broad panel of kinases [11] = target: broad panel of kinases (Homo sapiens, UniProt P24941); format: binding; conditions: CDK2; 1 μM
# broad panel of kinases [12] = target: broad panel of kinases (Homo sapiens, UniProt P42336, E545A); format: binding; conditions: PIK3CA(E545A); 1 μM
# broad panel of kinases [13] = target: broad panel of kinases (Homo sapiens, UniProt P15056); format: binding; conditions: BRAF; 1 μM
# broad panel of kinases (Homo sapiens, UniProt P15056), sequence (P15056 2-766 limits assumed): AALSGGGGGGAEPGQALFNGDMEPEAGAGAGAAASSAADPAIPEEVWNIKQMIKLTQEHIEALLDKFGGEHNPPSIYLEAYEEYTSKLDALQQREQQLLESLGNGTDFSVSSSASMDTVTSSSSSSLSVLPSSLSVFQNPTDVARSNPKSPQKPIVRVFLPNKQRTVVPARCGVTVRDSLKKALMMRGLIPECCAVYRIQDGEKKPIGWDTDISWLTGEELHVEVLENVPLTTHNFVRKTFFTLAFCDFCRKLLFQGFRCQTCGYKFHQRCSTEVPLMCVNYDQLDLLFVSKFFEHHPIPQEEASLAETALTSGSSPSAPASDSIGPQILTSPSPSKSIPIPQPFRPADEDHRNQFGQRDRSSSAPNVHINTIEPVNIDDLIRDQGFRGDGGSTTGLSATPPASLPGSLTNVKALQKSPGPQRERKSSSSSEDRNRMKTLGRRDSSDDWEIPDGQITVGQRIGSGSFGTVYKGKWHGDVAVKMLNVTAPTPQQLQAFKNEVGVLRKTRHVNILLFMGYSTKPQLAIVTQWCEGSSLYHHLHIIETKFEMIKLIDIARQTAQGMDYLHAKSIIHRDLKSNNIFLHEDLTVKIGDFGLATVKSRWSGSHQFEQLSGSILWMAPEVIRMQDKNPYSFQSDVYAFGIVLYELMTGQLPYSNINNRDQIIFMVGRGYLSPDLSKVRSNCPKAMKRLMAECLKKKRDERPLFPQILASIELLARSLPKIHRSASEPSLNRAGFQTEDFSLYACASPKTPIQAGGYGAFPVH
# broad panel of kinases [14] = target: broad panel of kinases (Homo sapiens, UniProt P53778); format: binding; conditions: p38-gamma; 1 μM
# broad panel of kinases [15] = target: broad panel of kinases (Homo sapiens, UniProt Q9H4A3); format: binding; conditions: WNK1; 1 μM
# broad panel of kinases [16] = target: broad panel of kinases (Homo sapiens, UniProt P42336, I800L); format: binding; conditions: PIK3CA(I800L); 1 μM
# broad panel of kinases [17] = target: broad panel of kinases (Homo sapiens, UniProt Q9NYY3); format: binding; conditions: PLK2; 1 μM
# broad panel of kinases [18] = target: broad panel of kinases (Homo sapiens, UniProt P10721); format: binding; conditions: 1 μM
# broad panel of kinases (Homo sapiens, UniProt P10721), sequence (P10721 26-976 limits assumed): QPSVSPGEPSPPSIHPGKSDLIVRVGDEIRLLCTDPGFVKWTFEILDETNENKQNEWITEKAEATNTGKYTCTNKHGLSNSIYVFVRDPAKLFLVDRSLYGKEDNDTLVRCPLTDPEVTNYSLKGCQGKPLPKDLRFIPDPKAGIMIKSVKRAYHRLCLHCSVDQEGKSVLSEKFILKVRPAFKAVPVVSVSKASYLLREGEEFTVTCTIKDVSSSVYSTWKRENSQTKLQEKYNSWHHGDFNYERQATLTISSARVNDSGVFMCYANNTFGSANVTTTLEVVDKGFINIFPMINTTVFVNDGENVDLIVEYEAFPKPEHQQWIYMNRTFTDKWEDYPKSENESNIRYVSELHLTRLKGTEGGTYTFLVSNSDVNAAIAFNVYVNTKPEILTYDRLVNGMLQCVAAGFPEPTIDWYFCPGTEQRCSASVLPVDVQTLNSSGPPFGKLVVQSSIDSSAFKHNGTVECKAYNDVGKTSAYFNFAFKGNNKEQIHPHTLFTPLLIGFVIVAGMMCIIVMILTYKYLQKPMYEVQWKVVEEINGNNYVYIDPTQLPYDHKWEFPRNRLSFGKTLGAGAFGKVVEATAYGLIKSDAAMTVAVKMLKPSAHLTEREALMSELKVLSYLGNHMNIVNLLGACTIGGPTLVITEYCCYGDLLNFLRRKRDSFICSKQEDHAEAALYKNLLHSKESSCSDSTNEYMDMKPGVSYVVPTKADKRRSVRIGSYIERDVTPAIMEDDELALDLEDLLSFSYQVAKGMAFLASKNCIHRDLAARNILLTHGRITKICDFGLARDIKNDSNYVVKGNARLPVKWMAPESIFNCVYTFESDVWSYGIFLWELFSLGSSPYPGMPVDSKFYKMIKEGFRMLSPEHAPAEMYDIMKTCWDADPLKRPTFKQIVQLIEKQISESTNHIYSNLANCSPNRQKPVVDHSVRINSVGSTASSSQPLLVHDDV
# broad panel of kinases [19] = target: broad panel of kinases (Homo sapiens, UniProt Q9Y2U5); format: binding; conditions: MAP3K2; 1 μM
# broad panel of kinases [20] = target: broad panel of kinases (Homo sapiens, UniProt P43405); format: binding; conditions: SYK; 1 μM
# broad panel of kinases [21] = target: broad panel of kinases (Homo sapiens, UniProt O75914); format: binding; conditions: PAK3; 1 μM
# broad panel of kinases [22] = target: broad panel of kinases (Homo sapiens, UniProt O43283); format: binding; conditions: LZK; 1 μM
# broad panel of kinases [23] = target: broad panel of kinases (Homo sapiens, UniProt P00519); format: binding; conditions: 1 μM
# broad panel of kinases [24] = target: broad panel of kinases (Homo sapiens, UniProt Q13546); format: binding; conditions: RIPK1; 1 μM
# broad panel of kinases [25] = target: broad panel of kinases (Homo sapiens, UniProt Q9UQB9); format: binding; conditions: AURKC; 1 μM
# broad panel of kinases [26] = target: broad panel of kinases (Homo sapiens, UniProt Q6ZWH5); format: binding; conditions: NEK10; 1 μM
# broad panel of kinases [27] = target: broad panel of kinases (Homo sapiens, UniProt Q15139); format: binding; conditions: PRKD1; 1 μM
# broad panel of kinases [28] = target: broad panel of kinases (Homo sapiens, UniProt Q05655); format: binding; conditions: PRKCD; 1 μM
# broad panel of kinases [29] = target: broad panel of kinases (Homo sapiens, UniProt P49336); format: binding; conditions: CDK8; 1 μM
# broad panel of kinases [30] = target: broad panel of kinases (Homo sapiens, UniProt P42680); format: binding; conditions: TEC; 1 μM
# broad panel of kinases [31] = target: broad panel of kinases (Homo sapiens, UniProt Q9C098); format: binding; conditions: DCAMKL3; 1 μM
# broad panel of kinases [32] = target: broad panel of kinases (Homo sapiens, UniProt P53667); format: binding; conditions: LIMK1; 1 μM
# broad panel of kinases [33] = target: broad panel of kinases (Homo sapiens, UniProt Q07002); format: binding; conditions: PCTK3; 1 μM
# broad panel of kinases [34] = target: broad panel of kinases (Homo sapiens, UniProt Q16832); format: binding; conditions: DDR2; 1 μM
# broad panel of kinases (Homo sapiens, UniProt Q16832), sequence (Q16832 22-855 limits assumed): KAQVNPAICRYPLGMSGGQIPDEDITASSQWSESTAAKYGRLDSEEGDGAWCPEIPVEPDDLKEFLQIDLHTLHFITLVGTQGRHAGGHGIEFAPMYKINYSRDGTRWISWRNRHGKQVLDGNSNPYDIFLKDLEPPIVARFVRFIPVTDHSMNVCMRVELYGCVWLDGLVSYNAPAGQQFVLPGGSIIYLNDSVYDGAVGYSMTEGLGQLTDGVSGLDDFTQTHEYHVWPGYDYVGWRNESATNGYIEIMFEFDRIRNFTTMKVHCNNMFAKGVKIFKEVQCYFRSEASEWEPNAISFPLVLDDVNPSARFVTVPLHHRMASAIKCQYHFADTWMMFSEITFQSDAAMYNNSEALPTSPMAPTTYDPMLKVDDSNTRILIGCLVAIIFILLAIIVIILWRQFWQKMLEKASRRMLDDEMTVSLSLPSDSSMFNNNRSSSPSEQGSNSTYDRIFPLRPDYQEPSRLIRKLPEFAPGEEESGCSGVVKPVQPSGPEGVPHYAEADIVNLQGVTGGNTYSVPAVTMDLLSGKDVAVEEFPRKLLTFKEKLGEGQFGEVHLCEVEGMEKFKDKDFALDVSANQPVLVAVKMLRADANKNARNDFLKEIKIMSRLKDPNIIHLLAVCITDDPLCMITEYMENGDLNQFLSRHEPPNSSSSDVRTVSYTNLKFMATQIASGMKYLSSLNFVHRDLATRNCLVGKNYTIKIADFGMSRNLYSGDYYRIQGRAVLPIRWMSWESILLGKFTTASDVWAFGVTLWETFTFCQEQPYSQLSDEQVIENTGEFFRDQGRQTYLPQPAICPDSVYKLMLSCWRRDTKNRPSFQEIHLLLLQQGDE
smiles,measurement,setting,value
CCC(=O)N1CC[C@H](Nc2nccc(Nc3ncc(C(=O)Nc4c(C)cccc4C)s3)n2)C1 [Example I-9],% change of MS signal compared to control sample,kinases in BCWM.1 cells [1],22.1%
same,% change of MS signal compared to control sample,kinases in BCWM.1 cells [2],−1.2%
same,% change of MS signal compared to control sample,kinases in BCWM.1 cells [3],−11%
same,% change of MS signal compared to control sample,kinases in BCWM.1 cells [4],11.3%
same,% change of MS signal compared to control sample,kinases in BCWM.1 cells [5],−9.3%
same,% change of MS signal compared to control sample,kinases in BCWM.1 cells [6],23.2%
C=CC(=O)N1CC[C@H](Nc2nc(CN3CCOCC3)cc(Nc3ncc(C(=O)Nc4c(C)cccc4C)s3)n2)C1 [Example I-2],percent of control binding remaining (lower = stronger binding),broad panel of kinases [7],0%
same,percent of control binding remaining (lower = stronger binding),broad panel of kinases [8],100%
same,percent of control binding remaining (lower = stronger binding),broad panel of kinases [9],100%
same,percent of control binding remaining (lower = stronger binding),broad panel of kinases [10],100%
same,percent of control binding remaining (lower = stronger binding),broad panel of kinases [11],100%
same,percent of control binding remaining (lower = stronger binding),broad panel of kinases [12],100%
same,percent of control binding remaining (lower = stronger binding),broad panel of kinases [13],4.4%
same,percent of control binding remaining (lower = stronger binding),broad panel of kinases [14],100%
same,percent of control binding remaining (lower = stronger binding),broad panel of kinases [15],100%
same,percent of control binding remaining (lower = stronger binding),broad panel of kinases [16],76%
same,percent of control binding remaining (lower = stronger binding),broad panel of kinases [17],92%
same,percent of control binding remaining (lower = stronger binding),broad panel of kinases [18]; KIT-autoinhibited,1.8%
same,percent of control binding remaining (lower = stronger binding),broad panel of kinases [18]; KIT,0%
same,percent of control binding remaining (lower = stronger binding),broad panel of kinases [19],96%
same,percent of control binding remaining (lower = stronger binding),broad panel of kinases [20],86%
same,percent of control binding remaining (lower = stronger binding),broad panel of kinases [21],75%
same,percent of control binding remaining (lower = stronger binding),broad panel of kinases [22],97%
same,percent of control binding remaining (lower = stronger binding),broad panel of kinases [23]; ABL1-nonphosphorylated,0.05%
same,percent of control binding remaining (lower = stronger binding),broad panel of kinases [23]; ABL1-phosphorylated,0%
same,percent of control binding remaining (lower = stronger binding),broad panel of kinases [24],100%
same,percent of control binding remaining (lower = stronger binding),broad panel of kinases [25],90%
same,percent of control binding remaining (lower = stronger binding),broad panel of kinases [26],93%
same,percent of control binding remaining (lower = stronger binding),broad panel of kinases [27],93%
same,percent of control binding remaining (lower = stronger binding),broad panel of kinases [28],96%
same,percent of control binding remaining (lower = stronger binding),broad panel of kinases [29],93%
same,percent of control binding remaining (lower = stronger binding),broad panel of kinases [30],3.6%
same,percent of control binding remaining (lower = stronger binding),broad panel of kinases [31],97%
same,percent of control binding remaining (lower = stronger binding),broad panel of kinases [32],52%
same,percent of control binding remaining (lower = stronger binding),broad panel of kinases [33],99%
same,percent of control binding remaining (lower = stronger binding),broad panel of kinases [34],8.6%
C=CC(=O)N1CC[C@H](Nc2nccc(Nc3ncc(C(=O)Nc4c(C)cccc4C)s3)n2)C1 [Example I-3],% change of MS signal compared to control sample,kinases in BCWM.1 cells [1],−12.8%
same,% change of MS signal compared to control sample,kinases in BCWM.1 cells [2],66.2%
same,% change of MS signal compared to control sample,kinases in BCWM.1 cells [3],5.5%
same,% change of MS signal compared to control sample,kinases in BCWM.1 cells [4],5.7%
same,% change of MS signal compared to control sample,kinases in BCWM.1 cells [5],1.6%
same,% change of MS signal compared to control sample,kinases in BCWM.1 cells [6],−17.5%
same,percent of control binding remaining (lower = stronger binding),broad panel of kinases [7],0.1%
same,percent of control binding remaining (lower = stronger binding),broad panel of kinases [8],36%
same,percent of control binding remaining (lower = stronger binding),broad panel of kinases [9],97%
same,percent of control binding remaining (lower = stronger binding),broad panel of kinases [10],100%
same,percent of control binding remaining (lower = stronger binding),broad panel of kinases [11],100%
same,percent of control binding remaining (lower = stronger binding),broad panel of kinases [12],100%
same,percent of control binding remaining (lower = stronger binding),broad panel of kinases [13],6.8%
same,percent of control binding remaining (lower = stronger binding),broad panel of kinases [14],100%
same,percent of control binding remaining (lower = stronger binding),broad panel of kinases [15],95%
same,percent of control binding remaining (lower = stronger binding),broad panel of kinases [16],89%
same,percent of control binding remaining (lower = stronger binding),broad panel of kinases [17],76%
same,percent of control binding remaining (lower = stronger binding),broad panel of kinases [18]; KIT-autoinhibited,2.6%
same,percent of control binding remaining (lower = stronger binding),broad panel of kinases [18]; KIT,0%
same,percent of control binding remaining (lower = stronger binding),broad panel of kinases [19],98%
same,percent of control binding remaining (lower = stronger binding),broad panel of kinases [20],81%
same,percent of control binding remaining (lower = stronger binding),broad panel of kinases [21],51%
same,percent of control binding remaining (lower = stronger binding),broad panel of kinases [22],88%
same,% change compared to control,broad panel of kinases [23]; ABL1-nonphosphorylated,0.1%
same,% change compared to control,broad panel of kinases [23]; ABL1-phosphorylated,0%
same,percent of control binding remaining (lower = stronger binding),broad panel of kinases [24],100%
same,percent of control binding remaining (lower = stronger binding),broad panel of kinases [25],71%
same,percent of control binding remaining (lower = stronger binding),broad panel of kinases [26],90%
same,percent of control binding remaining (lower = stronger binding),broad panel of kinases [27],94%
same,percent of control binding remaining (lower = stronger binding),broad panel of kinases [28],95%
same,percent of control binding remaining (lower = stronger binding),broad panel of kinases [29],98%
same,percent of control binding remaining (lower = stronger binding),broad panel of kinases [30],3.3%
same,percent of control binding remaining (lower = stronger binding),broad panel of kinases [31],92%
same,percent of control binding remaining (lower = stronger binding),broad panel of kinases [32],25%
same,percent of control binding remaining (lower = stronger binding),broad panel of kinases [33],92%
same,percent of control binding remaining (lower = stronger binding),broad panel of kinases [34],8.4%
